One experiment relates to Haemonchus contortus. The experiment can be described thus: In vivo nematode test Haemonchus contortus/sheep. As to conditions: experimentally infected sheep; orally and/or intravenously as pure active compound; complete cessation of oviposition (worm eggs in faeces) after treatment. How it is done: Haemonchus contortus/Sheep
Sheep experimentally infected with Haemonchus contortus were treated after expiry of the prepatency time of the parasite. The active compounds were administered orally and/or intravenously as pure active compound.
(§1) The degree of effectiveness is determined by quantitatively counting the worm eggs excreted with the faeces before and after treatment.
(§2) Complete cessation of oviposition after treatment means that the worms have been expelled or are so damaged that they no longer produce eggs (effective dose).
Active compounds tested and effective doses can be seen from the following tables.

Experiment [1] deals with Trichostrongylus colubriformis. Briefly: In vivo nematode test Trichostrongylus colubriformis/sheep. As to conditions: experimentally infected sheep; orally and/or intravenously as pure active compound; complete cessation of oviposition (worm eggs in faeces) after treatment. How it is done:
Trichostrongylus colubriformis/Sheep
Sheep experimentally infected with Trichostrongylus colubriformis were treated after expiry of the prepatency time of the parasite. The active compounds were administered orally and/or intravenously as pure active compound.
as §1, §2
Active compounds tested and effective doses can be seen from the following table.

Each structure is given as a SMILES string.

On to `COC(=O)C1CCCCN1C(=O)C(C)OC(=O)C(C)N(C)C(=O)N(C)C(=O)N(C)C` [Example 8, N-methyl-N-trimethylallophanoyl-L-alanyl-D-lactyl-L-homoproline Methyl Ester], for which, in the experiment on Haemonchus contortus, the Effective dose is listed as 5 mg/kg.

In the case of `COC(=O)C(C)OC(=O)C(C)N(C)C(=O)N(C)C(=O)N(C)C` [Example 2, Methyl N-methyl-N-trimethylallophanoyl-L-alanyl-D-lactate], the Effective dose (in experiment [1]; in the experiment with Haemonchus contortus) was 5 mg/kg in each case.

Values taken from patent US7772190B2, “Didepsipeptide-based endoparasiticides, new didepsipeptides and process for preparing the same” (Bayer Animal Health GmbH, priority 1995, dated 2010).
